Experimental data published in patent US12678508B2, “Compounds for targeted degradation of interleukin-2-inducible T-cell kinase and methods of use” (DANA-FARBER CANCER INSTITUTE, INC., priority 2020, dated 2026).
Values joined by “and” are separate entries in the source; they are usually repeats but may differ in a detail not shown here. Equal values may be shown once.

Tests used:
ITK [1] = target: T1, ITK (Homo sapiens, UniProt Q08881); assay: ITK degradation in DERL-2 cells with NAE inhibitor MLN4924 co-treatment; assay type: cell-based; parameters: endogenous in cells; host or cells: DERL-2 cells; settings: 18 hours, combination with NAE inhibitor MLN4924
T1 sequence (Q08881 1-620): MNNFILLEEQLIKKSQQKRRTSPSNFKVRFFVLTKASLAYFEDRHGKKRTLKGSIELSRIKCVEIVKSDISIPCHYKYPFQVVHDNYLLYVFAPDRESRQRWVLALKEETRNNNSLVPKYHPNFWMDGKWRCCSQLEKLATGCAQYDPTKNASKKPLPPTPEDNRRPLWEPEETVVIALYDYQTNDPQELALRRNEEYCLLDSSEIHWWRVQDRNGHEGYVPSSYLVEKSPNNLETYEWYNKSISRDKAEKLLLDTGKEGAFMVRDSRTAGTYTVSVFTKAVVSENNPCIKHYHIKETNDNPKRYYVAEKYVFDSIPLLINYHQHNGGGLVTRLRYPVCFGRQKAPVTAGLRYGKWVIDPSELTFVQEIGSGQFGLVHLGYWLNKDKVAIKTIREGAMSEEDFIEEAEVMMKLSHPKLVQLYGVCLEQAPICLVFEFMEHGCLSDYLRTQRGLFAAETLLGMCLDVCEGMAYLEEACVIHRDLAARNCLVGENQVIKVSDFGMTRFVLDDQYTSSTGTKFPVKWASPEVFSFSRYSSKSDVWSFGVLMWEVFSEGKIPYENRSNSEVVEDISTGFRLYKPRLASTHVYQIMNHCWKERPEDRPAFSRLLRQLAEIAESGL
Procedure: DERL-2 cells were treated with compound 1, the NEDD8-activating enzyme (NAE) inhibitor MLN4924, or in combination for 18 hours (FIG. 3) at […]. After 18 hours, DERL-2 cells were lysed in Cell Lysis Buffer (Cell Signaling Technology®) on ice for 30 minutes and lysates were clarified by centrifugation. Western blot was performed as described in Example 7.

Hut78 cells = assay: Cell growth and cell death (PI, flow cytometry) of Hut78 cells; assay type: cell-based; settings: Hut78 cells (independent of IL-2)
ITK [2] = target: T1, ITK; assay: In vivo ITK degradation in Hut78 xenograft tumors; parameters: endogenous in cells; host or cells: Hut78 cells (in culture; or engrafted subcutaneously in NSG mice and purified from tumours); species or system mouse; settings: female NSG mice, engrafted Hut78 cells, 50 mg/kg intraperitoneal, 3 doses every 8 hours, 4 hours after last dose
Procedure: In vivo degradation studies were conducted using female NSG mice. 6 eight-week-old NSG mice were injected subcutaneously with 1*10^7 of Hut78 cells. The injected mice were monitored for tumor formation twice a week until tumor growth reaches an average of 500 mm^3. Mice were then randomized into 3 mice per group, and treated with either vehicle (7.5% DMSO, 20% (2-hydroxypropyl)-β-cyclodextrin [HP-β-CD]) or compound 1 at 50 mg/kg via intraperitoneal injection for 3 doses (every 8 hours×3). Four hours after the last doing, mice were sacrificed to harvest tumors. Tumor tissues were cut into small pieces and dissociated into single cell suspension following the instruction of Tumor Dissociation Kit (Miltenyi Biotec, #130-095-929). Suspension cells were then depleted of mouse cells (Catalog #19849, STEMCELL technology). Purified tumor cells were lysed in Cell Lysis Buffer (Cell Signaling Technology®) on ice for 30 minutes and lysates were clarified by centrifugation. Immunoblotting for ITK was performed as described in Example 7 to evaluate protein level changes.

DERL-2 cells = assay: Cell proliferation and cell death (PI, flow cytometry) of DERL-2 cells in culture with IL-2; assay type: cell-based
Procedure: DERL-2 cells supplemented in culture with IL-2 (FIG. 4A) or without IL-2 (FIG. 4B and FIG. 4C) were treated with compound 1 at the indicated doses. Cells were split at 1:5 ratio with fixed concentration of compound 1 every two days. Cell numbers and cell death were quantified by flow cytometry. Propidium iodide (PI) solution, a marker of cell death, was added to cells 5 minutes before flow cytometry detection. Percent PI-positive is used to quantify cell death.
DERL-2 cells in culture with IL-2 were treated with either 1 μM of compound 1, 1 μM BMS509744 or DMSO. Cells were split at 1:5 ratio and fresh compounds were added every two days. Cell numbers and cell death were quantified by flow cytometry. PI solution was added to cells 5 minutes before flow cytometry detection to indicate cell death.

Molt4 cells = assay: Proteome-wide profiling by TMT quantitative mass spectrometry; assay type: cell-based; settings: 100 nM, 5 hours
Procedure: Proteome-wide profiling experiments were performed according to the reported protocol (B. Jiang et al., Angew. Chem. Int. Ed. Engl. 58:6321-6326 (2019)). Molt4 cells were treated with DMSO vehicle, 100 nM of compound 1 or 100 nM of compound 2 for 5 hours. Protein abundance measurements were made using TMT quantitative mass spectrometry and significant changes were assessed by moderated t-test as implemented in the limma package. The log2 fold change (log2 FC) is shown on the […] and negative log10 p value (−log10 p value) on the […] for three independent biological replicates of each treatment.

ITK [3] = target: T1, ITK; assay: ITK degradation in DERL-2 cells after pre-treatment with excess BMS509744; assay type: cell-based; parameters: endogenous in cells; host or cells: DERL-2 cells; settings: 10 μM BMS509744 4 hours, then 100 nM compound 1 4 hours
Procedure: DERL-2 cells were pre-treated with or without 10 μM BMS509744 for 4 hours. After 4 hours, 100 nM compound 1 was added and cells were cultured for another 4 hours. After treatment, DERL-2 cells were lysed in Cell Lysis Buffer (Cell Signaling Technology®) on ice for 30 minutes and lysates were clarified by centrifugation. Western blot was performed as described in Example 7 to detect protein expression levels of ITK, IKZF1, IKZF3, and GAPDH.

[4] = Mouse pharmacokinetic (PK) study; assay type: in vivo
Procedure: Standard PK studies were conducted using male C57BI/6 mice obtained from Scripps Fla. A single 2 mg/kg intravenous (IV) injection of compound 1 solution in 5/90 DMSO/10% Captisol® was evaluated. Plasma concentrations of compound 1 reported at each of the 8 time points (5 min, 15 min, 30 min, 1 h, 2 h, 4 h, 6 h and 8 h post dosing) are the average values from 3 test animals.

ITK [5] = target: T1, ITK; assay: ITK degradation in Hut78 cells (immunoblot); assay type: cell-based; parameters: endogenous in cells; settings: 1 μM, 18 hours
Procedure: Hut78 cells (mycosis fungoides and Sezary syndrome) were treated with or without 1 μM of compound 1 for 18 hours. After treatment, Hut78 cells were lysed in Cell Lysis Buffer (Cell Signaling Technology®) on ice for 30 minutes and lysates were clarified by centrifugation. Immunoblotting for ITK was performed as described in Example 7 to evaluate changes in protein levels upon ITK degrader treatment.

ITK [6] = target: T1, ITK; assay: ITK degradation in DERL-2 cells (immunoblot); assay type: cell-based; parameters: endogenous in cells; host or cells: DERL-2 cells
Procedure: (§1) DERL-2 cells (hepatosplenic T-cell lymphoma) were treated with compound 1 for either 4 hours (FIG. 1A) or 18 hours (FIG. 1B) at the indicated doses. After treatment, DERL-2 cells were lysed in Cell Lysis Buffer (Cell Signaling Technology®) on ice for 30 minutes and lysates were clarified by centrifugation. Immunoblotting for ITK was performed to evaluate changes in protein levels upon ITK degrader treatment. All samples were run with equal total protein content and immunoblotting was performed using antibodies that detect total ITK protein as well as GAPDH as a loading control followed by washing and binding of horseradish peroxidase (HRP)-conjugated secondary antibodies. Blots were developed using SuperSignal™ Pico chemiluminescent substrate (Thermo Scientific).
as §1, with “cells” for “cells (hepatosplenic T-cell lymphoma)”, “compound 1, compound 2 or ITK inhibitor (BMS509744)” for “compound 1”, “for” for “for either 4 hours (FIG. 1A) or”, “(FIG. 2)” for “(FIG. 1B)”, “After 18 hours,” for “After treatment,”

[7] = DERL-2 cells supplemented with IL-2
[8] = mouse, male C57BI/6 mice, single 2 mg/kg IV, plasma

Compound: COc1cc(C)c(Sc2cnc(NC(=O)c3ccc(N4CCN(CCCCCCCNC(=O)COc5cccc6c5C(=O)N(C5CCC(=O)NC5=O)C6=O)CC4)cc3)s2)cc1C(=O)N1CCN(C(C)=O)CC1 (stereo not drawn) [compound 1, N-(5-((5-(4-acetylpiperazine-1-carbonyl)-4-methoxy-2-methylphenyl)thio)thiazol-2-yl)-4-(4-(7-(2-((2-(2,6-dioxopiperidin-3-yl)-1,3-dioxoisoindolin-4-yl)oxy)acetamido)heptyl)piperazin-1-yl)benzamide]
- ITK degradation induced by compound 1 on treatment with MLN4924 (ITK [1]): rescued the degradation
- cell growth and cell death (Hut78 cells): did not inhibit cell growth or induce cell death
- degradation of ITK protein in vivo (immunoblot of purified tumor cells) (ITK [2]): significant degradation of ITK protein in vivo
- cell death (percent PI-positive) compared with DMSO (DERL-2 cells; [7]): induced cell death
- inhibition of cell proliferation compared with DMSO (DERL-2 cells; [7]): > 10 fold
- cell proliferation and cell death of TCL cells (DERL-2 cells; DERL-2 cells with IL-2, 1 μM): blocked cell proliferation and induced cell death
- proteins downregulated (relative protein abundance) (Molt4 cells): downregulated ITK, IKZF1, IKZF3, ZFP91, RNF166, ZNF653 and ZNF692
- ITK degradation induced by compound 1 after pre-treatment with excess BMS509744 (ITK [3]): rescued the degradation
- AUC % Extrap ([4]; male C57BI/6 mice, single 2 mg/kg IV, plasma): 5.14 % Extrap
- in vivo metabolic stability, exposure and clearance rate (overall assessment) ([4]; mouse PK, 2 mg/kg IV): good in vivo metabolic stability, exposure and clearance rate
- AUC(0-t) [4, 8]: 1370 ng·h/mL and 1.34 µM·h
- Cmax [4, 8]: 1710 ng/mL and 1.67 µM
- Tmax [4, 8]: 4.8 min
- half-life [4, 8]: 2.18 h
- AUC(0-inf) ([4]; mouse, male C57BI/6 mice, single 2 mg/kg IV, plasma, read-out: AUCINF—obs (converted)): 1440 ng·h/mL
- clearance ([4]; mouse, male C57BI/6 mice, single 2 mg/kg IV, plasma, read-out: Cl—obs): 25.2 mL/min/kg
- MRT inf ([4]; mouse, male C57BI/6 mice, single 2 mg/kg IV, plasma, read-out: MRTINF—obs): 1.96 h
- Vd ([4]; mouse, male C57BI/6 mice, single 2 mg/kg IV, plasma, read-out: VSS—obs): 2.94 L/kg
- degradation of ITK protein (immunoblot) (ITK [5]): pronounced degradation of ITK protein
- degradation of ITK protein (immunoblot) (ITK [6]; 4 hours or 18 hours): rapid and pronounced degradation of ITK protein
- concentration at which ITK degradation is evident (ITK [6]; 18 hours): 1 nM
- concentration of maximal ITK degradation (ITK [6]; 18 hours): 1000 nM
- degradation of ITK protein (immunoblot) (ITK [6]; 18 hours): rapid and pronounced degradation of ITK protein

Compound: COc1cc(C)c(Sc2cnc(NC(=O)c3ccc(N4CCN(CCCCCCCNC(=O)COc5cc6c7c(cccc7c5)C(=O)N(C5CCC(=O)NC5=O)C6=O)CC4)cc3)s2)cc1C(=O)N1CCN(C(C)=O)CC1 (stereo not drawn) [compound 2, N-(5-((5-(4-acetylpiperazine-1-carbonyl)-4-methoxy-2-methylphenyl)thio)thiazol-2-yl)-4-(4-(7-(2-((2-(2,6-dioxopiperidin-3-yl)-1,3-dioxo-2,3-dihydro-1H-benzo[de]isoquinolin-5-yl)oxy)acetamido)heptyl)piperazin-1-yl)benzamide]
- proteins downregulated (relative protein abundance) (Molt4 cells): selectively downregulated ITK
- concentration at which ITK degradation is evident (ITK [6]; 18 hours): 100 nM
- concentration of maximal ITK degradation (ITK [6]; 18 hours): 1000 nM
- degradation of ITK protein (immunoblot) (ITK [6]; 18 hours): rapid and pronounced degradation of ITK protein
